# Source: EP1935887A1, “Heterocyclic substituted carbonyl derivatives and their use as dopamine D3 receptor ligands” (Aventis Pharmaceuticals Inc., priority 2001, dated 2002)
# Target: T1, Cloned Human Dopamine D3 Receptors (Homo sapiens, UniProt P35462)
# T1 construct: expressed in transfected cells; membrane homogenate
# Experiment: [N-Methyl-3H]Spiroperidol binding to cloned human dopamine D3 receptors
# Conditions: Table 2; unit inferred; read-out: d3Ki
# Summary of the method: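 Membranes from CHO cells stably expressing human D3 receptor, homogenised in 10% DMSO and stored at -80°C. Binding uses [N-methyl-3H]spiroperidol in Tris buffer, pH 7.7.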
# T1 sequence (P35462 whole entry): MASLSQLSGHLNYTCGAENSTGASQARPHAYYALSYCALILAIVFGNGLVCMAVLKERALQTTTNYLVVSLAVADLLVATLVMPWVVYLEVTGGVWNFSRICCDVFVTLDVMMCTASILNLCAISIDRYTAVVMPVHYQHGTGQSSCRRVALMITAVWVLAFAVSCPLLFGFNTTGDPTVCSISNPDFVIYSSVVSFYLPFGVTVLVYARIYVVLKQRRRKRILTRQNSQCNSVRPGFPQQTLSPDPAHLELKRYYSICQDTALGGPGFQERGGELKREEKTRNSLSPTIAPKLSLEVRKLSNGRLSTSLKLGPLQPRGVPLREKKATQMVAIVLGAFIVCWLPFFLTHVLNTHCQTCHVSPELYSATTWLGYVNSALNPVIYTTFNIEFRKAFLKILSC
row,Structure (SMILES),Ki
1,C[C@H]1CC[C@H](NC(=O)CCCN2CCCN(c3csc4cc(F)ccc34)CC2)CC1 [compound 826824],34.2 nM
2,CCOC(=O)[C@H]1CC[C@H](NC(=O)CCCN2CCCN(c3csc4cc(F)ccc34)CC2)CC1 [compound 826825],74.9 nM
3,CC[C@H]1CC[C@H](NC(=O)CCCN2CCCN(c3csc4cc(F)ccc34)CC2)CC1 [compound 826826],27.4 nM
4,CC1CCCC(NC(=O)CCCN2CCCN(c3csc4cc(F)ccc34)CC2)C1 (stereo not shown) [compound 826827],39.5 nM
5,CCN(C(=O)CCCN1CCCN(c2csc3cc(F)ccc23)CC1)C1CCCCC1 [compound 826829],15 nM
6,O=C(CCCN1CCCN(c2csc3cc(F)ccc23)CC1)N(CCO)C1CCCCC1 [compound 826830],25.1 nM
7,O=C(CCCN1CCCN(c2csc3cc(F)ccc23)CC1)NC1CCCC1 [compound 826840],11 nM
8,CC1CCCC(NC(=O)[C@@H]2C[C@H]2CN2CCN(c3csc4cc(C(F)(F)F)ccc34)CC2)C1 (stereo partly shown) [compound 826884],15.2 nM
9,CN(C(=O)[C@@H]1C[C@H]1CN1CCN(c2csc3cc(C(F)(F)F)ccc23)CC1)C1CCCCC1 [compound 826885],20.3 nM
10,O=C([C@@H]1C[C@H]1CN1CCN(c2csc3cc(C(F)(F)F)ccc23)CC1)N(c1ccccc1)C1CCCCC1 [compound 826886],136 nM

# Same assay, conditions: Table 2 part the 10th table; read-out: d3Ki
row,Structure (SMILES),Ki
1,O=C([C@@H]1C[C@H]1CN1CCCN(c2csc3cc(C(F)(F)F)ccc23)CC1)N1CCCC1 [compound 826683],3.7 nM
2,CCOC(=O)C1CN(C(=O)C2CC2CN2CCCN(c3csc4cc(C(F)(F)F)ccc34)CC2)CCC1=O (stereo not shown) [compound 826685],154 nM
3,O=C([C@@H]1C[C@H]1CN1CCCN(c2csc3cc(C(F)(F)F)ccc23)CC1)N1CCC(O)CC1 [compound 826686],26 nM
4,NC(=O)C1CCN(C(=O)[C@@H]2C[C@H]2CN2CCCN(c3csc4cc(C(F)(F)F)ccc34)CC2)CC1 [compound 826687],132 nM
5,O=C([C@@H]1C[C@H]1CN1CCCN(c2csc3cc(C(F)(F)F)ccc23)CC1)N1CCC(Cc2ccccc2)CC1 [compound 826688],217 nM
6,N#CC1(c2ccccc2)CCN(C(=O)[C@@H]2C[C@H]2CN2CCCN(c3csc4cc(C(F)(F)F)ccc34)CC2)CC1 [compound 826689],674 nM
7,O=C([C@@H]1C[C@H]1CN1CCCN(c2csc3cc(C(F)(F)F)ccc23)CC1)N1CCOCC1 [compound 826691],35 nM
8,CCOC(=O)C1CCN(C(=O)CCCN2CCCN(c3csc4cc(F)ccc34)CC2)CC1 [compound 826831],2.55 nM
9,O=C(CCCN1CCCN(c2csc3cc(F)ccc23)CC1)N1CCC(O)CC1 [compound 826832],16.1 nM
10,CC1CCCCN1C(=O)CCCN1CCCN(c2csc3cc(F)ccc23)CC1 (stereo not shown) [compound 826833],0.872 nM
11,CC1CCN(C(=O)CCCN2CCCN(c3csc4cc(F)ccc34)CC2)CC1 [compound 826834],8.01 nM
12,CC1CCCN(C(=O)CCCN2CCCN(c3csc4cc(F)ccc34)CC2)C1 (stereo not shown) [compound 826835],2.12 nM
13,O=C(CCCN1CCCN(c2csc3cc(F)ccc23)CC1)N1CCC(N2CCCC2)CC1 [compound 826836],2.23 nM
14,CC1(C)CCCN(C(=O)CCCN2CCCN(c3csc4cc(F)ccc34)CC2)C1 [compound 826837],8.8 nM
15,CC1CC(C)CN(C(=O)CCCN2CCCN(c3csc4cc(F)ccc34)CC2)C1 (stereo not shown) [compound 826838],14.6 nM
16,O=C(CCCN1CCCN(c2csc3cc(F)ccc23)CC1)N1CCCC1 [compound 826839],9.37 nM
17,CC1CCCN1C(=O)CCCN1CCCN(c2csc3cc(F)ccc23)CC1 (stereo not shown) [compound 826842],3.66 nM
18,CN(C)C1CCN(C(=O)CCCN2CCCN(c3csc4cc(F)ccc34)CC2)C1 (stereo not shown) [compound 826843],126 nM
19,CN(C)C1CCN(C(=O)CCCN2CCN(c3csc4cc(F)ccc34)CC2)C1 (stereo not shown) [compound 826863],26.6 nM
20,CCOC(=O)C1CCN(C(=O)[C@@H]2C[C@H]2CN2CCCN(c3csc4cc(F)ccc34)CC2)CC1 [compound 826871],10.7 nM

row,Structure (SMILES),Ki
1,CC1CCCCN1C(=O)[C@@H]1C[C@H]1CN1CCCN(c2csc3cc(F)ccc23)CC1 (stereo partly shown) [compound 826873],1.31 nM
2,CC1CCN(C(=O)[C@@H]2C[C@H]2CN2CCCN(c3csc4cc(F)ccc34)CC2)CC1 [compound 826874],1.72 nM
3,CC1CCCN(C(=O)[C@@H]2C[C@H]2CN2CCCN(c3csc4cc(F)ccc34)CC2)C1 (stereo partly shown) [compound 826875],2.79 nM
4,O=C([C@@H]1C[C@H]1CN1CCCN(c2csc3cc(F)ccc23)CC1)N1CCC(N2CCCC2)CC1 [compound 826876],2.72 nM
5,CC1(C)CCCN(C(=O)[C@@H]2C[C@H]2CN2CCCN(c3csc4cc(F)ccc34)CC2)C1 [compound 826877],4.72 nM
6,CC1CC(C)CN(C(=O)[C@@H]2C[C@H]2CN2CCCN(c3csc4cc(F)ccc34)CC2)C1 (stereo partly shown) [compound 826878],7.95 nM
7,O=C([C@@H]1C[C@H]1CN1CCCN(c2csc3cc(F)ccc23)CC1)N1CCCC1 [compound 826879],1.59 nM
8,CC1CCCN1C(=O)[C@@H]1C[C@H]1CN1CCCN(c2csc3cc(F)ccc23)CC1 (stereo partly shown) [compound 826882],2.93 nM
9,CN(C)C1CCN(C(=O)[C@@H]2C[C@H]2CN2CCCN(c3csc4cc(F)ccc34)CC2)C1 (stereo partly shown) [compound 826883],13.4 nM
10,CC1(C)CC2CC(C)(CN2C(=O)[C@@H]2C[C@H]2CN2CCN(c3csc4cc(C(F)(F)F)ccc34)CC2)C1 (stereo partly shown) [compound 826896],89.5 nM
11,CCOC(=O)C1CCN(C(=O)[C@@H]2C[C@H]2CN2CCN(c3csc4cc(C(F)(F)F)ccc34)CC2)CC1 [compound 826899],45.5 nM
12,O=C([C@@H]1C[C@H]1CN1CCN(c2csc3cc(C(F)(F)F)ccc23)CC1)N1CCC(O)(c2ccc(Cl)cc2)CC1 [compound 826900],181 nM
13,O=C([C@@H]1C[C@H]1CN1CCN(c2csc3cc(C(F)(F)F)ccc23)CC1)N1CCCC(O)C1 (stereo partly shown) [compound 826902],13.1 nM
14,O=C([C@@H]1C[C@H]1CN1CCN(c2csc3cc(C(F)(F)F)ccc23)CC1)N1CCC(n2c(=O)[nH]c3ccccc32)CC1 [compound 826903],7.47 nM
15,NC(=O)C1CCCN(C(=O)[C@@H]2C[C@H]2CN2CCN(c3csc4cc(C(F)(F)F)ccc34)CC2)C1 (stereo partly shown) [compound 826904],39.4 nM
16,CC1CCCCN1C(=O)[C@@H]1C[C@H]1CN1CCN(c2csc3cc(C(F)(F)F)ccc23)CC1 (stereo partly shown) [compound 826905],14.5 nM
17,CC1CCN(C(=O)[C@@H]2C[C@H]2CN2CCN(c3csc4cc(C(F)(F)F)ccc34)CC2)CC1 [compound 826906],39.5 nM
18,CC1CCCN(C(=O)[C@@H]2C[C@H]2CN2CCN(c3csc4cc(C(F)(F)F)ccc34)CC2)C1 (stereo partly shown) [compound 826907],18.8 nM
19,CCN(CC)C(=O)C1CCCN(C(=O)[C@@H]2C[C@H]2CN2CCN(c3csc4cc(C(F)(F)F)ccc34)CC2)C1 (stereo partly shown) [compound 826908],7.06 nM
20,CCOC(=O)C1CCCN(C(=O)[C@@H]2C[C@H]2CN2CCN(c3csc4cc(C(F)(F)F)ccc34)CC2)C1 (stereo partly shown) [compound 826909],28.9 nM

# Same assay, conditions: d3Ki, Table 2 part the 10th table
row,Structure (SMILES),Ki
1,O=C1CCN(C(=O)[C@@H]2C[C@H]2CN2CCN(c3csc4cc(C(F)(F)F)ccc34)CC2)CC1 [compound 826901],42.4 nM

# Same assay, conditions: read-out: d3Ki
row,Structure (SMILES),Ki
1,O=C(NC1CCCC1)[C@@H]1C[C@H]1CN1CCCN(c2csc3cc(C(F)(F)F)ccc23)CC1 [compound 826684],7.9 nM
2,C[C@H]1CC[C@H](NC(=O)[C@@H]2C[C@H]2CN2CCCN(c3csc4cc(F)ccc34)CC2)CC1 [compound 826864],2.16 nM
3,CCOC(=O)[C@H]1CC[C@H](NC(=O)[C@@H]2C[C@H]2CN2CCCN(c3csc4cc(F)ccc34)CC2)CC1 [compound 826865],3.68 nM
4,CC[C@H]1CC[C@H](NC(=O)[C@@H]2C[C@H]2CN2CCCN(c3csc4cc(F)ccc34)CC2)CC1 [compound 826866],1.24 nM
5,CC1CCCC(NC(=O)[C@@H]2C[C@H]2CN2CCCN(c3csc4cc(F)ccc34)CC2)C1 (stereo partly shown) [compound 826867],1.89 nM
6,CN(C(=O)[C@@H]1C[C@H]1CN1CCCN(c2csc3cc(F)ccc23)CC1)C1CCCCC1 [compound 826868],3.49 nM
7,CCN(C(=O)[C@@H]1C[C@H]1CN1CCCN(c2csc3cc(F)ccc23)CC1)C1CCCCC1 [compound 826869],6.75 nM
8,O=C([C@@H]1C[C@H]1CN1CCCN(c2csc3cc(F)ccc23)CC1)N(CCO)C1CCCCC1 [compound 826870],7.4 nM
9,O=C(NC1CCCC1)[C@@H]1C[C@H]1CN1CCCN(c2csc3cc(F)ccc23)CC1 [compound 826880],2.86 nM
10,O=C(NC1CCCCC1)[C@@H]1C[C@H]1CN1CCCN(c2csc3cc(F)ccc23)CC1 [compound 826881],2.38 nM
11,O=C(NNC1CCCCC1)[C@@H]1C[C@H]1CN1CCN(c2csc3cc(C(F)(F)F)ccc23)CC1 [compound 826887],83.8 nM
12,CC1(C)C2CCC1(C)C(NC(=O)[C@@H]1C[C@H]1CN1CCN(c3csc4cc(C(F)(F)F)ccc34)CC1)C2 (stereo partly shown) [compound 826890],38 nM
13,CC(C)[C@@H]1CC[C@@H](C)C[C@H]1NC(=O)[C@@H]1C[C@H]1CN1CCN(c2csc3cc(C(F)(F)F)ccc23)CC1 [compound 826891],263 nM
14,O=C(N[C@H]1CCCC[C@@H]1O)[C@@H]1C[C@H]1CN1CCN(c2csc3cc(C(F)(F)F)ccc23)CC1 [compound 826892],25.9 nM
15,CC1CC(NC(=O)[C@@H]2C[C@H]2CN2CCN(c3csc4cc(C(F)(F)F)ccc34)CC2)CC(C)(C)C1 (stereo partly shown) [compound 826893],20.4 nM
16,CCN(C(=O)[C@@H]1C[C@H]1CN1CCN(c2csc3cc(C(F)(F)F)ccc23)CC1)C1CCCCC1 [compound 826894],35 nM
17,O=C([C@@H]1C[C@H]1CN1CCN(c2csc3cc(C(F)(F)F)ccc23)CC1)N(CCO)C1CCCCC1 [compound 826895],48.8 nM
18,CCOC(=O)[C@H]1CCCC[C@H]1NC(=O)[C@@H]1C[C@H]1CN1CCN(c2csc3cc(C(F)(F)F)ccc23)CC1 [compound 826897],128 nM
19,CCOC(=O)[C@H]1CCCC[C@@H]1NC(=O)[C@@H]1C[C@H]1CN1CCN(c2csc3cc(C(F)(F)F)ccc23)CC1 [compound 826898],50.5 nM
